Laboratory results reported in patent US20110038940A1, “PULVERULENT COMPOSITION AND A PROCESS FOR PREPARING THE SAME” (INNOV'IA, priority 2008, published 2011).
Values after ≈ are worked out from the molar mass of the structure shown.

Legend:
[1] = Sedimentation of dispersed composition in water measured by turbidity (back scattering laser, Turbiscan MA 1000); format: physicochemical; details: 10 g in 90 ml distilled water at 20° C., bottom of tube
Procedure: 10 g of the water-dispersible pulverulent composition A is dispersed in 90 ml of distilled water at 20° C. in a tube. The sedimentation rate is measured by turbidity using a back scattering laser device (Turbiscan MA 1000) along the tube. The back light is measured along the tube at different time so that evolution of the sedimentation can be followed along time. The sedimentation is measured at the bottom of the tube.

[2] = Natural sedimentation in conical graduated tube, 15% dispersion in distilled water; sediment volume and dry solids; format: physicochemical; details: 15% (net w/total w) in distilled water at 20° C., 10 ml
Procedure: The water-dispersible pulverulent composition A is dispersed in distilled water at 20° C. at a concentration of 15% (net w/total w) in a conical graduated sedimentation tube (total volume of the solution is 10 ml). The quantity of the sediment (in ml) is measured along time (Table 3).
The encapsulation efficiency can also be assessed by measuring the hydration of the granules of the water-dispersible pulverulent composition of the invention. This has been evaluated by measuring the dry solid content of the sediment (% dry matter) (Table 3).

[3] = Sedimentation test (stability of the dispersion): sediment size and dry content after 24 hours; format: physicochemical; details: 1.5 g in 8.5 ml demineralised water, 2 min vortex; for Dry content of the sediment: sediment after 24 hours
Procedure: The stability is measured by the sedimentation test as follow: • 10 ml of solution is prepared using 8.5 ml of demineralised water and 1.5 g of the pulverulent composition A or B in special sedimentation tubes graduated from 0.1 ml up to 10 ml; • complete dispersion is assumed by a 2 min vortex mixing; • sedimentation is controlled at defined times to evaluate the amount of sediment; • quality of the dispersion is evaluated by measuring: • the dispersion of the solids all over the aqueous solution by measuring the height of the sediments of the hydrated particles. For the same amount of pulverulent composition, the higher the sediments, the more dispersed the particles in the aqueous solution • the dry content of the sediment after 24 hours.

[4] = water; cited from earlier work

Cc1cc2nc3c(=O)[nH]c(=O)nc-3n(C[C@H](O)[C@H](O)[C@H](O)CO)c2cc1C [Riboflavin]
% Back light after 2 min dispersion ([1]; 2 min): 2% | % Back light after 6 min dispersion ([1]; 6 min): 3.1% | Sediment volume after 1 Hour dispersion ([2]; 1 hour): 0.6 mL | Dry solids content of the sediment after 24 Hour sedimentation ([2]; 24 hours): 39.3% | Sediment after 24 H ([3]; 24 h): 1.5 mL | Dry content of the sediment ([3]; listed as Riboflavin (raw material)): 39.4% | Dry content of the sediment ([3]; listed as Riboflavin (raw material) (control)): 39.4% | Dry content of the sediment ([3]; listed as Riboflavine: Raw material (control)): 39.4% | solubility [4]: 70 µg/mL (≈ 186 µM)
